Measured values: patent US4378344A, “Method and apparatus for performing multiple, simultaneous in vitro diagnostic tests using a solid phase system” (priority 1979, dated 1983)
Like-named read-outs stand apart in the source and are kept apart here.

Columns and labels:
anti-T4 [1] = test: simultaneous assay: 125I-thyroxin bound to anti-T4 coated stick (Example 6); type: binding, rabbit
Protocol: (§1) Digoxin and thyroxin were utilized as the antigens. 1.1 ml of 0.01 M PBS at pH 7.4 and also containing 5 mg/ml thimersol was added to the appropriate tubes. 50 μl of a digoxin solution and 50 μl of a T4 solution were added to each tube.
(§2) The following series of assays were conducted.
(B) uncoated tube and anti-T4 coated stick
(§3) (D) anti-digoxin coated tube and anti-T4 coated stick.
(§4) The remainder of the values are based on these two values.

anti-T4 [2] = test: simultaneous assay in clinical serum sample: 125I-thyroxin bound to anti-T4 coated stick (Example 7); type: binding, rabbit
anti-digoxin [3] = test: simultaneous assay: 125I-digoxin bound to anti-digoxin coated tube (Example 6); type: binding, rabbit
Protocol: as §1, §2
(A) anti-digoxin coated tube;
(C) anti-digoxin coated tube and uncoated stick; and,
as §3, §4

anti-digoxin [4] = conditions: clinical sample
Protocol: The same series of assays were conducted as described in Example 6 and expressed in the same manner.

Question: How did the “T4 binding to the anti-T4 coated stick” value (anti-T4 [1]; when an anti-digoxin coated tube is also present) turn out when `N[C@@H](Cc1cc(I)c(Oc2cc(I)c(O)c(I)c2)c(I)c1)C(=O)O` [T4, thyroxin] was run?
Answer: no significant difference

Question: And the “T4 binding to the anti-T4 coated stick” value (anti-T4 [1]; when digoxin, 125I-digoxin or both are present)?
Answer: no significant difference

Question: How did the “% ^125 I-Thyroxin Bound” value (anti-T4 [1]; stick 2 (digoxin 0, T4 0 ng/ml; no 125I-digoxin), series B, uncoated tube, set as 100%) turn out when `N[C@@H](Cc1cc(I)c(Oc2cc(I)c(O)c([125I])c2)c(I)c1)C(=O)O` [^125 I-T4, ^125 I-Thyroxin] was run?
Answer: 100%

Question: And the “% ^125 I-Thyroxin Bound” value (anti-T4 [1]; stick 2 (digoxin 0, T4 0 ng/ml; no 125I-digoxin), series D, anti-digoxin tube)?
Answer: 96%

Question: What about the “% ^125 I-Thyroxin Bound” value (anti-T4 [1]; stick 3 (digoxin 0, T4 0 ng/ml; with 125I-digoxin), series B, uncoated tube) of the same molecule?
Answer: 106%

Question: And the “% ^125 I-Thyroxin Bound” value (anti-T4 [1]; stick 3 (digoxin 0, T4 0 ng/ml; with 125I-digoxin), series D, anti-digoxin tube)?
Answer: 106%

Question: And the “% ^125 I-Thyroxin Bound” value (anti-T4 [1]; stick 5 (digoxin 0, T4 30 ng/ml; no 125I-digoxin), series B, uncoated tube)?
Answer: 81%

Question: And the “% ^125 I-Thyroxin Bound” value (anti-T4 [1]; stick 5 (digoxin 0, T4 30 ng/ml; no 125I-digoxin), series D, anti-digoxin tube)?
Answer: 79%

Question: What about the “% ^125 I-Thyroxin Bound” value (anti-T4 [1]; stick 6 (digoxin 0, T4 30 ng/ml; with 125I-digoxin), series B, uncoated tube) of the same molecule?
Answer: 92%

Question: And the “% ^125 I-Thyroxin Bound” value (anti-T4 [1]; stick 6 (digoxin 0, T4 30 ng/ml; with 125I-digoxin), series D, anti-digoxin tube)?
Answer: 95%

Question: And the “% ^125 I-Thyroxin Bound” value (anti-T4 [1]; stick 8 (digoxin 4, T4 0 ng/ml; no 125I-digoxin), series B, uncoated tube)?
Answer: 101%

Question: And the “% ^125 I-Thyroxin Bound” value (anti-T4 [1]; stick 8 (digoxin 4, T4 0 ng/ml; no 125I-digoxin), series D, anti-digoxin tube)?
Answer: 100%

Question: What about the “% ^125 I-Thyroxin Bound” value (anti-T4 [1]; stick 9 (digoxin 4, T4 0 ng/ml; with 125I-digoxin), series B, uncoated tube) of the same molecule?
Answer: 113%

Question: What about the “% ^125 I-Thyroxin Bound” value (anti-T4 [1]; stick 9 (digoxin 4, T4 0 ng/ml; with 125I-digoxin), series D, anti-digoxin tube) of the same molecule?
Answer: 108%

Question: And the “% ^125 I-Thyroxin Bound” value (anti-T4 [1]; stick 11 (digoxin 4, T4 30 ng/ml; no 125I-digoxin), series B, uncoated tube)?
Answer: 82%

Question: What about the “% ^125 I-Thyroxin Bound” value (anti-T4 [1]; stick 11 (digoxin 4, T4 30 ng/ml; no 125I-digoxin), series D, anti-digoxin tube) of the same molecule?
Answer: 81%

Question: What about the “% ^125 I-Thyroxin Bound” value (anti-T4 [1]; stick 12 (digoxin 4, T4 30 ng/ml; with 125I-digoxin), series B, uncoated tube) of the same molecule?
Answer: 92%

Question: And the “% ^125 I-Thyroxin Bound” value (anti-T4 [1]; stick 12 (digoxin 4, T4 30 ng/ml; with 125I-digoxin), series D, anti-digoxin tube)?
Answer: 89%

Question: And the “% ^125 I-Thyroxin Bound” value (anti-T4 [2]; stick 2 (no 125I-digoxin), series B, uncoated tube, set as 100%)?
Answer: 100%

Question: What about the “% ^125 I-Thyroxin Bound” value (anti-T4 [2]; stick 2 (no 125I-digoxin), series D, anti-digoxin tube) of the same molecule?
Answer: 102%

Question: What about the “% ^125 I-Thyroxin Bound” value (anti-T4 [2]; stick 3 (with 125I-digoxin), series B, uncoated tube) of the same molecule?
Answer: 146%

Question: What about the “% ^125 I-Thyroxin Bound” value (anti-T4 [2]; stick 3 (with 125I-digoxin), series D, anti-digoxin tube) of the same molecule?
Answer: 143%

Question: With `C[C@H]1O[C@@H](O[C@H]2[C@@H](O)C[C@H](O[C@H]3[C@@H](O)C[C@H](O[C@H]4CC[C@@]5(C)[C@H](CC[C@@H]6[C@@H]5C[C@@H](O)[C@]5(C)[C@@H](C7=CC(=O)OC7)CC[C@]65O)C4)O[C@@H]3C)O[C@@H]2C)C[C@H](O)[C@@H]1O` [digoxin] as the molecule, how does the “digoxin binding to the anti-digoxin coated tube” value (anti-digoxin [3]; when T4, 125I-T4 or both are present) read?
Answer: no significant difference

Question: What about the “digoxin binding to the anti-digoxin coated tube” value (anti-digoxin [3]; when an uncoated stick or an anti-T4 coated stick is also present) of the same molecule?
Answer: no significant difference

Question: ^125 I-Digoxin was tested. Which “% ^125 I-Digoxin Bound” value (anti-digoxin [3]; tube 1 (digoxin 0, T4 0 ng/ml; no 125I-T4), series A, no stick, set as 100%) did it give?
Answer: 100%

Question: What about the “% ^125 I-Digoxin Bound” value (anti-digoxin [3]; tube 1 (digoxin 0, T4 0 ng/ml; no 125I-T4), series C, uncoated stick) of the same molecule?
Answer: 118%

Question: And the “% ^125 I-Digoxin Bound” value (anti-digoxin [3]; tube 1 (digoxin 0, T4 0 ng/ml; no 125I-T4), series D, anti-T4 stick)?
Answer: 126%

Question: What about the “% ^125 I-Digoxin Bound” value (anti-digoxin [3]; tube 3 (digoxin 0, T4 0 ng/ml; with 125I-T4), series A, no stick) of the same molecule?
Answer: 98%

Question: And the “% ^125 I-Digoxin Bound” value (anti-digoxin [3]; tube 3 (digoxin 0, T4 0 ng/ml; with 125I-T4), series C, uncoated stick)?
Answer: 109%

Question: And the “% ^125 I-Digoxin Bound” value (anti-digoxin [3]; tube 3 (digoxin 0, T4 0 ng/ml; with 125I-T4), series D, anti-T4 stick)?
Answer: 121%

Question: What about the “% ^125 I-Digoxin Bound” value (anti-digoxin [3]; tube 4 (digoxin 0, T4 30 ng/ml; no 125I-T4), series A, no stick) of the same molecule?
Answer: 97%

Question: And the “% ^125 I-Digoxin Bound” value (anti-digoxin [3]; tube 4 (digoxin 0, T4 30 ng/ml; no 125I-T4), series C, uncoated stick)?
Answer: 111%

Question: And the “% ^125 I-Digoxin Bound” value (anti-digoxin [3]; tube 4 (digoxin 0, T4 30 ng/ml; no 125I-T4), series D, anti-T4 stick)?
Answer: 109%

Question: What about the “% ^125 I-Digoxin Bound” value (anti-digoxin [3]; tube 6 (digoxin 0, T4 30 ng/ml; with 125I-T4), series A, no stick) of the same molecule?
Answer: 100%

Question: What about the “% ^125 I-Digoxin Bound” value (anti-digoxin [3]; tube 6 (digoxin 0, T4 30 ng/ml; with 125I-T4), series C, uncoated stick) of the same molecule?
Answer: 104%

Question: What about the “% ^125 I-Digoxin Bound” value (anti-digoxin [3]; tube 6 (digoxin 0, T4 30 ng/ml; with 125I-T4), series D, anti-T4 stick) of the same molecule?
Answer: 110%

Question: What about the “% ^125 I-Digoxin Bound” value (anti-digoxin [3]; tube 7 (digoxin 4, T4 0 ng/ml; no 125I-T4), series A, no stick) of the same molecule?
Answer: 66%

Question: What about the “% ^125 I-Digoxin Bound” value (anti-digoxin [3]; tube 7 (digoxin 4, T4 0 ng/ml; no 125I-T4), series C, uncoated stick) of the same molecule?
Answer: 76%

Question: And the “% ^125 I-Digoxin Bound” value (anti-digoxin [3]; tube 7 (digoxin 4, T4 0 ng/ml; no 125I-T4), series D, anti-T4 stick)?
Answer: 68%

Question: And the “% ^125 I-Digoxin Bound” value (anti-digoxin [3]; tube 9 (digoxin 4, T4 0 ng/ml; with 125I-T4), series A, no stick)?
Answer: 69%

Question: What about the “% ^125 I-Digoxin Bound” value (anti-digoxin [3]; tube 9 (digoxin 4, T4 0 ng/ml; with 125I-T4), series C, uncoated stick) of the same molecule?
Answer: 77%

Question: And the “% ^125 I-Digoxin Bound” value (anti-digoxin [3]; tube 9 (digoxin 4, T4 0 ng/ml; with 125I-T4), series D, anti-T4 stick)?
Answer: 70%

Question: What about the “% ^125 I-Digoxin Bound” value (anti-digoxin [3]; tube 10 (digoxin 4, T4 30 ng/ml; no 125I-T4), series A, no stick) of the same molecule?
Answer: 62%

Question: And the “% ^125 I-Digoxin Bound” value (anti-digoxin [3]; tube 10 (digoxin 4, T4 30 ng/ml; no 125I-T4), series C, uncoated stick)?
Answer: 76%

Question: What about the “% ^125 I-Digoxin Bound” value (anti-digoxin [3]; tube 10 (digoxin 4, T4 30 ng/ml; no 125I-T4), series D, anti-T4 stick) of the same molecule?
Answer: 69%

Question: What about the “% ^125 I-Digoxin Bound” value (anti-digoxin [3]; tube 12 (digoxin 4, T4 30 ng/ml; with 125I-T4), series A, no stick) of the same molecule?
Answer: 63%

Question: What about the “% ^125 I-Digoxin Bound” value (anti-digoxin [3]; tube 12 (digoxin 4, T4 30 ng/ml; with 125I-T4), series C, uncoated stick) of the same molecule?
Answer: 73%

Question: What about the “% ^125 I-Digoxin Bound” value (anti-digoxin [3]; tube 12 (digoxin 4, T4 30 ng/ml; with 125I-T4), series D, anti-T4 stick) of the same molecule?
Answer: 68%

Question: And the “% ^125 I-Digoxin Bound” value (anti-digoxin [4]; tube 1 (no 125I-T4), series A, no stick, set as 100%)?
Answer: 100%

Question: What about the “% ^125 I-Digoxin Bound” value (anti-digoxin [4]; tube 1 (no 125I-T4), series C, uncoated stick) of the same molecule?
Answer: 95%

Question: What about the “% ^125 I-Digoxin Bound” value (anti-digoxin [4]; tube 1 (no 125I-T4), series D, anti-T4 stick) of the same molecule?
Answer: 114%

Question: What about the “% ^125 I-Digoxin Bound” value (anti-digoxin [4]; tube 3 (with 125I-T4), series A, no stick) of the same molecule?
Answer: 98%

Question: What about the “% ^125 I-Digoxin Bound” value (anti-digoxin [4]; tube 3 (with 125I-T4), series C, uncoated stick) of the same molecule?
Answer: 135%

Question: And the “% ^125 I-Digoxin Bound” value (anti-digoxin [4]; tube 3 (with 125I-T4), series D, anti-T4 stick)?
Answer: 116%
